# ChEMBL document CHEMBL3507680, “University of Dundee, Gates Library screen for HepG2 cell viability”
# Experiment: Human HepG2 cell viability assay in 384 well format
# Type: toxicity, cell-based
# Parameters: dose 125 nL, time 70.5 hour; cytotoxicity at 70.5 h: concentration not given beside the values
# Conditions: HepG2 cells, read-out: Inhibition
row,Compound,cytotoxicity at 70.5 h
1,CN(C)c1nc(NCCCN2CCc3ccccc32)ncc1F,38.5%
2,CN(Cc1nc(Cc2cccc(C(F)(F)F)c2)no1)C1CCOCC1,-5.63%
3,Cc1cc(C)nc(N2CCC(c3nnc(CN(C)C)n3C3CC3)CC2)n1,-5.18%
4,CCOc1cc2c(cc1CN1CCC3(CCCNC3=O)C1)CCC2 (configuration not stated),30%
5,CCCc1cc(NCc2ccc(CO)cc2)n2nccc2n1,1.98%
6,CCc1c(C)nn(CCN2CC3(CCOC3)CCC2=O)c1C (configuration not stated),-6.21%
7,CCOC(=O)C1CCCN(Cc2c[nH]nc2-c2cc3ccccc3o2)C1 (configuration not stated),18.3%
8,CCN(C)S(=O)(=O)N1CCCC(CO)(CC=C(C)C)C1 (configuration not stated),-2.99%
9,Cc1noc(-c2ccc(N3CCC(C(=O)N4CCCC4)CC3)nc2)n1,-1.82%
10,O=C1CCCN1CCCC(=O)N1CCCCC1c1ccc(F)cc1 (configuration not stated),2.07%
11,CN1CCN(Cc2noc(-c3cc(-c4ccc(F)cc4)n[nH]3)n2)CC1,31.6%
12,CCc1cnc(C)nc1N1CCS(=O)(=O)CC1,-7.02%
13,O=C(c1ccc[nH]1)N1CCc2cc(S(=O)(=O)N3CCOCC3)ccc2C1,50.8%
14,Cc1ccc(C2(O)CCN(C(=O)c3sccc3S(N)(=O)=O)CC2)nc1,-4.05%
15,CCn1c(C)nnc1SCCNC(=O)c1cccc2ccnn12,14.1%
16,O=C(c1cnn[nH]1)N(Cc1ccncc1)CC1CCCO1 (configuration not stated),-0.844%
17,O=c1[nH]c(-c2ccc(Cl)cc2)nc2c1CCNC2,12.1%
18,O=C(C1NCCc2[nH]cnc21)N1CCC2(CC1)CNc1ccccc12 (configuration not stated),-11.9%
19,CCCC(=O)Nc1cc2c(cc1OC)NC(=O)CC2c1ccc(CC)o1 (configuration not stated),22.1%
20,CC(C)c1ccc(CN2CCC(CNS(=O)(=O)C3CC3)C2)cc1 (configuration not stated),-3.87%
21,COc1cccc2c1OCC(CNC(=O)CN(C)C1CCCC1)C2 (configuration not stated),6.99%
22,CN(Cc1nc(Cc2ccccc2F)no1)CC1Cc2ccccc2O1 (configuration not stated),8.45%
23,Cn1cc(CN(CC2(O)CNCCOC2)C2CCCCC2)cn1 (configuration not stated),-8.06%

row,Compound,cytotoxicity at 70.5 h
1,CN(CC1CCN(c2ccccc2)C1)c1ccc(Cn2ccnc2)cn1 (configuration not stated),-13.6%
2,Cc1ccn2cc(C(=O)N3CCCC(Cn4cc(CO)nn4)C3)nc2c1 (configuration not stated),17.5%
3,CCC1(O)CCCN(c2nc(C(C)(C)C)nc3c2cnn3C)C1 (configuration not stated),-9.12%
4,COc1cccc(N2CCN(C(=O)C(OC)c3ccccc3)CC2=O)c1 (configuration not stated),-7.1%
5,CN(Cc1ccccc1)C(=O)CCN1CCC2(CC1)[C@H](O)C[C@@H]2O,-8.64%
6,CCCc1nnc(NCCCn2nc(C)c(Cl)c2C)o1,-7.76%
7,CCn1nc(C)c(CN2CCCC(c3ccc(C(=O)O)cc3)C2)c1C (configuration not stated),24.4%
8,N[C@H]1CN(C(=O)c2cnc3cc(Cl)ccc3c2O)C[C@@H]1C1CC1,5.93%
9,CC(CN1CCC2(CC1)N=C(c1cccnc1)NC2=O)c1ccccc1 (configuration not stated),-7.3%
10,COC[C@@]12CC[C@@H](N3CCOCC3)C[C@H]1CCN(c1cc(C)ccn1)C2,-1.61%
11,Cc1cccnc1CC(C)N(C)Cc1cccs1 (configuration not stated),-13.2%
12,Cn1ccnc1-c1ccc(NCC2COCCO2)nn1 (configuration not stated),-5.53%
13,CN1CCN(CCC(F)(F)C(F)F)CC12CCNC(=O)CC2 (configuration not stated),4.17%
14,NC1(C(=O)NCCC2CN(Cc3ccco3)CCO2)CCCC1 (configuration not stated),29.8%
15,Cc1cc(C)c2c(N3CCC(O)(Cn4ccnc4)CC3)ncnc2n1,-0.18%
16,O=C(NCC(F)(F)F)C1CCC(=O)N(C2CCCC2)C1 (configuration not stated),-3.8%
17,CNc1ncc(CN(C)C(=O)[C@@]23CNC[C@@H]2CN(C2CCCC2)C3)cn1,-4.91%
18,COc1ccc(F)cc1C(=O)C1CCCN(Cc2ccc(C)s2)C1 (configuration not stated),-12.9%
19,O=C(NCCN1CCOC1=O)c1ccc2sccc2c1,-4.67%
20,CC(C)[C@@H](N)C(=O)NCc1cccnc1N1CCc2ccccc2C1,-4.97%
21,COc1cccc2c(=O)n(Cc3nc(C)cc(O)n3)cnc12,-12.5%
22,CC(C)c1ccc(NC2CCCN(Cc3ccncc3)C2)cc1 (configuration not stated),0.778%
23,Cc1cc(C)c(C(=O)N2CCOC(CCN(C)C)C2)o1 (configuration not stated),-14.2%

row,Compound,cytotoxicity at 70.5 h
1,Cc1nnsc1C(=O)NCc1cccnc1N(C)C,-3.02%
2,CCc1c(C)nn(CC(=O)NC(C)c2n[nH]c(C)n2)c1C (configuration not stated),16.1%
3,COc1ccc(F)c(CN2CCCC3(CCN(S(C)(=O)=O)C3)C2)c1 (configuration not stated),-10.2%
4,CCCc1nc(C)cc(N2CCC3(CCC(=O)N(C4CC4)C3)CC2)n1,-5.2%
5,CN1CC2(CCN(C(=O)c3ccc(-n4cccn4)cc3Cl)C2)OC1=O (configuration not stated),-2.7%
6,CCCc1nc(CNc2nc(C)nc3oc(C)nc23)cs1,-6.15%
7,CCn1nc(CC(C)C)cc1C(=O)NCC(F)(F)F,12.8%
8,Cc1nccn1CCCN1CCC(c2nccn2CC2CCC2)CC1,-3.77%
9,Cc1cc(N2CC[C@H](O)C2)n2nc(C)c(C)c2n1,-1.97%
10,O=C(Cc1cccc(O)c1)N1CCCC(OCc2cccnc2)C1 (configuration not stated),-7.55%
11,CC(C)N1CCC(CC(=O)NC[C@H]2CCc3ccccc3O2)CC1,-11.9%
12,Cc1nn(C)c2nc(NC3CCNCC3)sc12,1.8%
13,CN(CC1COCCO1)c1ncnc2cc(F)ccc12 (configuration not stated),19%
14,CCCn1ccnc1CNC(=O)C1COc2cc(OC)ccc2C1 (configuration not stated),-5.58%
15,Cc1nc(CCNC(=O)C2CC(=O)N(C(C)C)C2)sc1C (configuration not stated),-10.3%
16,CCOCCn1c(=O)n(Cc2ccccc2F)c2cc(C(=O)O)cnc21,11.9%
17,Cc1cc(C2CCC2)nc(N(C)Cc2cc(-c3ccccn3)no2)n1,-6.04%
18,COc1ccc(CN2CCCC2)cc1Oc1cccc(C#N)n1,-2.11%
19,Cc1cc2nc(-c3ccccc3)cc(NCC3CCS(=O)(=O)C3)n2n1 (configuration not stated),8.05%
20,COc1ccc(C(C(=O)O)N2CCC(Cn3cccn3)CC2)c(OC)n1 (configuration not stated),15.1%
21,Cc1oc(-c2cc(F)cc(F)c2)nc1CN1C[C@@H](C)NC[C@@H]1C,-11.7%
22,Cc1ncc(C(=O)N2CC[C@@]3(O)CCN(C4CCCCC4)C[C@H]3C2)cn1,-7.37%
23,CC(C)c1cncnc1N1CC[C@H](N2CCOCC2)[C@H](CCCO)C1,-9.63%

row,Compound,cytotoxicity at 70.5 h
1,CC(C)Cc1cc(C(=O)NCC(O)CN2CCCCCC2)on1 (configuration not stated),-3.2%
2,CC[C@@]1(O)CCN(C(=O)CN(C)Cc2ccc(F)cc2)C[C@H]1O,17.3%
3,COc1ccc(-c2nc3c([nH]2)CCNC3C(=O)O)c2ccc(C)nc12 (configuration not stated),12.4%
4,CN1CCCC1CCn1ccnc1-c1nc2ccccc2[nH]1 (configuration not stated),-0.748%
5,CCNc1nc(C)c(C(=O)N2CCN(c3ncccc3C)CC2)s1,-4.75%
6,O=S(=O)(NCCc1nc(-c2cccnc2)n[nH]1)NCc1ccccc1,-7.05%
7,N[C@H]1CN(S(=O)(=O)c2cccnc2)C[C@@H]1C1CC1,-4.49%
8,Cc1nc(C)c(C)c(NCCSCc2[nH]cnc2C)n1,-5.17%
9,COc1ccc(CN2CCCn3cncc3C2)cc1Cn1cncn1,-8.65%
10,Cc1ccc(NC2(C(=O)NCCCN)CCCC2)cc1,-8.06%
11,OC1(CN2CCCC2)COCCN(c2ncnc3[nH]ccc23)C1 (configuration not stated),-3.06%
12,CN(CC1CCCO1)c1nc(-c2cccnc2)nc2c1CCNCC2 (configuration not stated),-10.6%
13,CN(Cc1n[nH]c(=O)n1Cc1ccccc1F)S(C)(=O)=O,5.65%
14,COc1ccccc1Oc1ncccc1CNC(=O)C(C)N1CCCC1 (configuration not stated),-1.98%
15,CC(=O)N1CCN(CC2CCOc3ccccc3C2)CC1 (configuration not stated),-1.42%
16,CN(C)CCNC(=O)c1cnc2c(c1)nc(-c1ccccc1Cl)n2C,-10.7%
17,O=C(O)C(c1ccc2c(c1)OCCO2)N1CCCCCC1 (configuration not stated),-7.26%
18,CC(C(=O)N1CCCC1)N1CCC(c2nccn2CC2CCC2)CC1 (configuration not stated),-4.27%
19,O=C(N[C@@H]1CCNC[C@H]1O)c1ccc(F)c(Cl)c1,-7.9%
20,Cc1cc(C)nc(N2Cc3cnn(Cc4ccc(F)cc4)c3C2)n1,13.2%
21,Cc1noc(C)c1CN1C(=O)[C@H]2CC[C@@H]1CN(Cc1cccnc1N)C2,16.1%
22,Cn1c(CN2CCCC2)nnc1C1CCCN(C(=O)C2CCOCC2)C1 (configuration not stated),-3.01%
23,CN(C)S(=O)(=O)N1CCN(C(=O)c2ccc3ccn(C)c3c2)CC1,-7.35%

row,Compound,cytotoxicity at 70.5 h
1,CC(=O)N1CCCN(c2nccc(-c3cn(C)nc3C)n2)CC1,-2.77%
2,O=C(c1ccc2c(c1)CCC2)N1C[C@@H](CN2CCOCC2)[C@@H](CO)C1,-6.01%
3,O=C(CCc1ccc(O)cc1)N1CCC(Cc2ccc(CO)cc2)C1 (configuration not stated),-9.62%
4,CSCC(=O)N1CCCN(c2ccccc2C)CC1,-4.65%
5,CNc1nc(C(=O)N2CCCC(c3nccn3CC3CCC3)C2)cs1 (configuration not stated),8.97%
6,CCN(CCn1cccn1)Cc1nc(-c2cccs2)oc1C,-9.82%
7,Cc1cnn(CCC(=O)N2C[C@H]3CC[C@@H]2CN(CC(=O)N(C)C)C3)c1,-3.83%
8,FC(F)(F)c1nc(NC2CCCC2)c2ccccc2n1,-12.8%
9,CCCNCC1(O)CCCN(Cc2cccc(C)c2)C1=O (configuration not stated),-3.03%
10,COc1cccc2c1OCC(C(=O)NC1CCN(S(C)(=O)=O)CC1)C2 (configuration not stated),14%
11,Cc1nc(Cn2nc(C3CCNCC3)n(Cc3ccccc3)c2=O)no1,6.65%
12,Cc1cc(F)ccc1CN1CCC(O)(CN2CCCCC2)C1 (configuration not stated),-1.38%
13,CC(C)N1CCCC2(CCN(C(=O)CCCn3cncn3)C2)C1=O (configuration not stated),-4.98%
14,Cc1nc(C)c(CC(=O)N2C[C@H]3CC[C@@H]2CN(C(=O)N(C)C)C3)c(=O)[nH]1,15.9%
15,COCc1noc(-c2ccc(N(C)Cc3cc(C)no3)nc2)n1,-6.05%
16,O=C(c1ccccn1)N1C[C@@H]2CC[C@H](C1)N(C(=O)CCc1ccsc1)C2,-10.8%
17,CCCN1CCCn2nc(CNS(=O)(=O)c3ccc(C)cc3)cc2C1,-6.85%
18,CC(C)CN1CCc2[nH]cnc2C12CCN(C(=O)c1cccnc1)CC2,12.4%
19,Cn1cc(CNc2ncnc3c2CCN(Cc2ccsc2)CC3)cn1,0.199%
20,NC(=O)CN1CCC(C(=O)N2CCCC(OCc3cccnc3)C2)CC1 (configuration not stated),-11%
